The term IC50 denotes the concentration needed to halve the response being measured.

Test [1] concerns Trypanosoma brucei brucei. Kind of test: Antitrypanosomal activity against Trypanosoma brucei brucei assessed as trypanosome lysis using recombinant APOL1 protein G1 variant and measured by Alamar blue based fluoresence assay. The class given is functional, organism-based.
In test [2] the target is Apolipoprotein L1 (Homo sapiens, UniProt O14791). In words: Inhibition of APOL1 G1 variant in human HEK293-T-REx cells measured by Thallium assay. The class given is cell-based.

For `O=C(N[C@H]1CC[C@@H](CO)O1)[C@H]1C[C@H](c2c(-c3ccc(F)cc3)[nH]c3c(F)cc(F)cc32)C1`, the IC50 in test [1] and in test [2] was > 1000 nM throughout.

`O=C1CC[C@H](NC(=O)[C@H]2C[C@H](c3c(-c4ccc(F)cc4)[nH]c4c(F)cc(F)cc43)C2)C1`: the figures for the concentration for half-maximal inhibition (IC50) in test [1] and in test [2] were 250 nM and 0.25 nM, respectively.

On to `O=C1CCC(NC(=O)[C@H]2C[C@H](c3c(-c4ccc(F)cc4)[nH]c4c(F)cc(F)cc43)C2)C1` (stereo not given in full), for which the IC50 in test [1] and in test [2] was > 1000 nM each time.

`O=C1C[C@H](NC(=O)[C@H]2C[C@H](c3c(-c4ccc(F)cc4)[nH]c4c(F)cc(F)cc43)C2)C(=O)N1`: the concentration for half-maximal inhibition (IC50) in test [1] and in test [2] was < 250 nM each time.

Take `CN(CC(O)CO)C(=O)[C@H]1C[C@H](c2c(-c3ccc(F)cc3)[nH]c3c(F)cc(F)cc32)C1` (stereo not given in full): the IC50 in test [1] is 250 nM; in test [2], > 1000 nM.

In the case of `O=C([C@H]1C[C@H](c2c(-c3ccc(F)cc3)[nH]c3c(F)cc(F)cc32)C1)N1CC(O)C(CO)C1` (stereo not given in full), the results for the IC50 in test [1] and in test [2] were 250 nM and > 1000 nM, respectively.

Turning to `Cc1noc(CNC(=O)[C@H]2C[C@H](c3c(-c4ccc(F)cc4)[nH]c4c(F)cc(F)cc43)C2)n1`, the IC50 in test [1] and in test [2] was < 250 nM each time.

With `O=C([C@H]1C[C@H](c2c(-c3ccc(F)cc3)[nH]c3c(F)cc(F)cc32)C1)N1CCC[C@@H]1CO`, the IC50 in test [1] is < 250 nM; in test [2], 0.25 nM.

As for `O=C([C@H]1C[C@H](c2c(-c3ccc(F)cc3)[nH]c3c(F)cc(F)cc32)C1)N1CCCC[C@H]1CO`, the IC50 in test [1] was 250 nM; in test [2], > 1000 nM.

Turning to `O=C([C@H]1C[C@H](c2c(-c3ccc(F)cc3)[nH]c3c(F)cc(F)cc32)C1)N1CCCC[C@@H]1CCO`, the IC50 in test [1] and in test [2] was > 1000 nM in each case.

In the case of `O=C([C@H]1C[C@H](c2c(-c3ccc(F)cc3)[nH]c3c(F)cc(F)cc32)C1)N1CCCCC1CO` (stereo not given in full), the IC50 is 250 nM in test [1] and > 1000 nM in test [2].

As to `O=C1C[C@@H](NC(=O)[C@H]2C[C@H](c3c(-c4ccc(F)cc4)[nH]c4c(F)cc(F)cc43)C2)C(=O)N1`, the IC50 in test [1] and in test [2] was < 250 nM in each case.

Turning to `NC(=O)[C@H]1C[C@H](c2c(-c3ccc(F)cc3)[nH]c3c(F)cc(F)cc32)C1`, the IC50 is < 250 nM in test [1] and 0.25 nM in test [2].

For `CC(CO)(CO)NC(=O)[C@H]1C[C@H](c2c(-c3ccc(F)cc3)[nH]c3c(F)cc(F)cc32)C1`, the 50% inhibitory concentration (IC50) in test [1] and in test [2] was < 250 nM in each case.

`NC(=O)[C@H]1CCCN1C(=O)[C@H]1C[C@H](c2c(-c3ccc(F)cc3)[nH]c3c(F)cc(F)cc32)C1`: the IC50 in test [1] was > 1000 nM; in test [2], 0.25 nM.

As to `Cn1cncc1CNC(=O)[C@H]1C[C@H](c2c(-c3ccc(F)cc3)[nH]c3c(F)cc(F)cc32)C1`, the IC50 in test [1] is 250 nM; in test [2] it was > 1000 nM.

As for `O=C([C@H]1C[C@H](c2c(-c3ccc(F)cc3)[nH]c3c(F)cc(F)cc32)C1)N1CCCC(CO)C1` (stereo not given in full), the IC50 in test [1] and in test [2] was > 1000 nM each time.

Consider `NC(=O)[C@@H]1CCN(C(=O)[C@H]2C[C@H](c3c(-c4ccc(F)cc4)[nH]c4c(F)cc(F)cc43)C2)C1`, for which the IC50 in test [1] and in test [2] was > 1000 nM throughout.

With `O=C(NCc1nnco1)[C@H]1C[C@H](c2c(-c3ccc(F)cc3)[nH]c3c(F)cc(F)cc32)C1`, the figures for the IC50 in test [1] and in test [2] were < 250 nM and 0.25 nM, respectively.

Turning to `O=C(NC[C@H](O)C(F)(F)F)[C@H]1C[C@H](c2c(-c3ccc(F)cc3)[nH]c3c(F)cc(F)cc32)C1`, the IC50 in test [1] was < 250 nM; in test [2], 0.25 nM.

Turning to `O=C(NCC1(O)CC1)[C@H]1C[C@H](c2c(-c3ccc(F)cc3)[nH]c3c(F)cc(F)cc32)C1`, the IC50 in test [1] was determined as 250 nM; in test [2], 0.25 nM.

As for `CC(CO)N(C)C(=O)[C@H]1C[C@H](c2c(-c3ccc(F)cc3)[nH]c3c(F)cc(F)cc32)C1` (stereo not given in full), the IC50 was 250 nM in test [1] and < 250 nM in test [2].

Take `O=C1NCC[C@@H]1NC(=O)[C@H]1C[C@H](c2c(-c3ccc(F)cc3)[nH]c3c(F)cc(F)cc32)C1`: the IC50 in test [1] was 250 nM; in test [2] it was 0.25 nM.

Turning to `O=C(N[C@H]1CCC[C@@H]1O)[C@H]1C[C@H](c2c(-c3ccc(F)cc3)[nH]c3c(F)cc(F)cc32)C1`, the IC50 in test [1] is 250 nM; in test [2], 0.25 nM.

Turning to `O=C(N[C@@H]1CCC[C@H]1O)[C@H]1C[C@H](c2c(-c3ccc(F)cc3)[nH]c3c(F)cc(F)cc32)C1`, the IC50 in test [1] and in test [2] was > 1000 nM each time.

Consider `O=C([C@H]1C[C@H](c2c(-c3ccc(F)cc3)[nH]c3c(F)cc(F)cc32)C1)N1CC(OCC2CCCO2)C1` (stereo not given in full), for which the IC50 in test [1] and in test [2] was > 1000 nM each time.

With `O=C(N[C@H](CO)C(F)(F)F)[C@H]1C[C@H](c2c(-c3ccc(F)cc3)[nH]c3c(F)cc(F)cc32)C1`, the IC50 was < 250 nM in test [1] and 0.25 nM in test [2].

Take `O=C([C@H]1C[C@H](c2c(-c3ccc(F)cc3)[nH]c3c(F)cc(F)cc32)C1)N1CCCC(O)C1` (stereo not given in full): the IC50 was 250 nM in test [1] and > 1000 nM in test [2].

On to `O=C(N[C@H]1CC[C@@H]1O)[C@H]1C[C@H](c2c(-c3ccc(F)cc3)[nH]c3c(F)cc(F)cc32)C1`, for which the IC50 in test [1] was 250 nM; in test [2], > 1000 nM.

Turning to `O=C(N[C@H]1CC[C@H](O)C1)[C@H]1C[C@H](c2c(-c3ccc(F)cc3)[nH]c3c(F)cc(F)cc32)C1`, the IC50 in test [1] and in test [2] was > 1000 nM throughout.

For the molecule `O=C1OCC[C@@H]1NC(=O)[C@H]1C[C@H](c2c(-c3ccc(F)cc3)[nH]c3c(F)cc(F)cc32)C1`, the IC50 came out at 250 nM in test [1] and 0.25 nM in test [2].

Turning to `Cc1nnc(CNC(=O)[C@H]2C[C@H](c3c(-c4ccc(F)cc4)[nH]c4c(F)cc(F)cc43)C2)o1`, the values for the IC50 in test [1] and in test [2] were < 250 nM and 0.25 nM, respectively.

Regarding `O=C([C@H]1C[C@H](c2c(-c3ccc(F)cc3)[nH]c3c(F)cc(F)cc32)C1)N1CCN[C@H](CO)C1`, the IC50 is 250 nM in test [1] and > 1000 nM in test [2].

Regarding `O=C(N[C@@H]1CC[C@H](O)C1)[C@H]1C[C@H](c2c(-c3ccc(F)cc3)[nH]c3c(F)cc(F)cc32)C1`, the IC50 in test [1] and in test [2] was > 1000 nM throughout.

In the case of `CC(O)CNC(=O)[C@H]1C[C@H](c2c(-c3ccc(F)cc3)[nH]c3c(F)cc(F)cc32)C1` (stereo not given in full), the IC50 was determined as 250 nM in test [1] and 0.25 nM in test [2].

In the case of `O=C([C@H]1C[C@H](c2c(-c3ccc(F)cc3)[nH]c3c(F)cc(F)cc32)C1)N1CC[C@@H]1CO`, the IC50 in test [1] and in test [2] was < 250 nM in each case.

`CC(C#N)(CO)NC(=O)[C@H]1C[C@H](c2c(-c3ccc(F)cc3)[nH]c3c(F)cc(F)cc32)C1` (stereo not given in full): the IC50 in test [1] is < 250 nM; in test [2], 0.25 nM.

As to `NC(=O)[C@H](CO)NC(=O)[C@H]1C[C@H](c2c(-c3ccc(F)cc3)[nH]c3c(F)cc(F)cc32)C1`, the IC50 was 250 nM in test [1] and 0.25 nM in test [2].

In the case of `O=C(NC[C@@H](O)C(F)(F)F)[C@H]1C[C@H](c2c(-c3ccc(F)cc3)[nH]c3c(F)cc(F)cc32)C1`, the IC50 in test [1] was determined as 250 nM; in test [2] it was 0.25 nM.

Consider `C[C@@H](O)CNC(=O)[C@H]1C[C@H](c2c(-c3ccc(F)cc3)[nH]c3c(F)cc(F)cc32)C1`, for which the IC50 was 250 nM in test [1] and 0.25 nM in test [2].

`CC1(NC(=O)[C@H]2C[C@H](c3c(-c4ccc(F)cc4)[nH]c4c(F)cc(F)cc43)C2)CCNC1=O` (stereo not given in full): the IC50 is < 250 nM in test [1] and 0.25 nM in test [2].

Regarding `O=C(N[C@H]1CC[C@H]1O)[C@H]1C[C@H](c2c(-c3ccc(F)cc3)[nH]c3c(F)cc(F)cc32)C1`, the IC50 worked out at 250 nM in test [1] and 0.25 nM in test [2].

`C#CC(CO)NC(=O)[C@H]1C[C@H](c2c(-c3ccc(F)cc3)[nH]c3c(F)cc(F)cc32)C1` (stereo not given in full): the IC50 is < 250 nM in test [1] and 0.25 nM in test [2].

With `O=C(NCC1(O)COC1)[C@H]1C[C@H](c2c(-c3ccc(F)cc3)[nH]c3c(F)cc(F)cc32)C1`, the results for the IC50 in test [1] and in test [2] were 250 nM and 0.25 nM, respectively.

As for `CC(C)[C@@H](CO)NC(=O)[C@H]1C[C@H](c2c(-c3ccc(F)cc3)[nH]c3c(F)cc(F)cc32)C1`, the IC50 in test [1] and in test [2] was > 1000 nM throughout.

As for `C[C@@H](O)[C@H](CO)NC(=O)[C@H]1C[C@H](c2c(-c3ccc(F)cc3)[nH]c3c(F)cc(F)cc32)C1`, the IC50 in test [1] was 250 nM; in test [2] it was > 1000 nM.

Turning to `O=C(N[C@@H](CO)C(F)(F)F)[C@H]1C[C@H](c2c(-c3ccc(F)cc3)[nH]c3c(F)cc(F)cc32)C1`, the results for the IC50 in test [1] and in test [2] were < 250 nM and 0.25 nM, respectively.

As for `O=C([C@H]1C[C@H](c2c(-c3ccc(F)cc3)[nH]c3c(F)cc(F)cc32)C1)N1CCOC(CO)C1` (stereo not given in full), the IC50 in test [1] and in test [2] was > 1000 nM throughout.

Take `NC(=O)[C@H]1CCN(C(=O)[C@H]2C[C@H](c3c(-c4ccc(F)cc4)[nH]c4c(F)cc(F)cc43)C2)C1`: the IC50 in test [1] and in test [2] was > 1000 nM in each case.

On to `O=C(N[C@@H]1CCC[C@@H]1O)[C@H]1C[C@H](c2c(-c3ccc(F)cc3)[nH]c3c(F)cc(F)cc32)C1`, for which the concentration for half-maximal inhibition (IC50) was 250 nM in test [1] and > 1000 nM in test [2].

Take `O=C(NC1(CO)CCOC1)[C@H]1C[C@H](c2c(-c3ccc(F)cc3)[nH]c3c(F)cc(F)cc32)C1` (stereo not given in full): the IC50 in test [1] and in test [2] was < 250 nM each time.

As for `O=C1CC[C@@H](NC(=O)[C@H]2C[C@H](c3c(-c4ccc(F)cc4)[nH]c4c(F)cc(F)cc43)C2)C1`, the half-maximal inhibitory concentration (IC50) in test [1] and in test [2] was > 1000 nM throughout.

With `Cn1ncc(CNC(=O)[C@H]2C[C@H](c3c(-c4ccc(F)cc4)[nH]c4c(F)cc(F)cc43)C2)n1`, the IC50 was < 250 nM in test [1] and 0.25 nM in test [2].

Regarding `O=C(NCc1cnoc1)[C@H]1C[C@H](c2c(-c3ccc(F)cc3)[nH]c3c(F)cc(F)cc32)C1`, the 50% inhibitory concentration (IC50) in test [1] is < 250 nM; in test [2] it was 0.25 nM.

With `O=C([C@H]1C[C@H](c2c(-c3ccc(F)cc3)[nH]c3c(F)cc(F)cc32)C1)N1CC2(CC(O)C2)C1`, the IC50 in test [1] and in test [2] was > 1000 nM each time.

The record behind these values is ChEMBL document CHEMBL5052856, “Inhibitors of apol1 and methods of using same” (2021).
